Assay results from patent publication US20150011559A1, “ANTIMICROBIAL AGENTS” (RUTGERS, THE STATE UNIVERSITY OF NEW JERSEY, priority 2012, published 2015).
Values after ≈ are worked out from the molar mass of the structure shown. Like-named read-outs stand apart in the source and are kept apart here.

Tests used:
[1] = tested on: methicillin-susceptible Staphylococcus aureus (MSSA); assay: Antibacterial assay (Test C), broth microdilution MIC against MSSA; assay type: cell-based; conditions: for MIC: Staphylococcus aureus, MSSA, read-out: MSSA MIC data
Method: (§1) Test C. Antibacterial Assay.
(§2) Antibacterial activity can be determined as per Clinical and Laboratory Standards Institute (CLSI) guidelines using a broth microdilution assay in which log-phase bacteria are grown at 37° C. in appropriate medium containing two-fold serial dilutions of a compound to yield final concentrations ranging from 256 to 0.06 μg/mL. For determination of minimal inhibitory concentration (MIC) values, bacterial growth is monitored after 24 to 48 hours by measuring optical density at 600 nm.
(§3) Using a procedure similar to Test C, representative compounds of the invention were tested against methicillin-susceptible Staphylococcus aureus (MSSA) and methicillin-resistant Staphylococcus aureus (MRSA).

[2] = tested on: methicillin-resistant Staphylococcus aureus (MRSA); assay: Antibacterial assay (Test C), broth microdilution MIC against MRSA; assay type: cell-based; conditions: for MIC: Staphylococcus aureus, MRSA, read-out: MRSA MIC data
Method: as §1, §2, §3

[3] = minimal inhibitory concentration, broth microdilution, growth completely inhibited
[4] = minimal inhibitory concentration, broth microdilution, growth completely inhibited, listed as 43
[5] = minimal inhibitory concentration, broth microdilution, growth completely inhibited, listed as 46
[6] = minimal inhibitory concentration, broth microdilution, growth completely inhibited, listed as 51

| SMILES | MIC [1, 3] [µg/mL] | MIC [2, 3] [µg/mL] | also measured |
| --- | --- | --- | --- |
| CC(C)(C)c1cccc(-c2ccccc2CCN)c1 [Code 38] | 32 (≈ 126 µM) |  |  |
| CC(C)(C)c1ccc(-c2cccc(CCN)c2)cc1 [Code 40] | 16 (≈ 63.1 µM) | 8 (≈ 31.6 µM) |  |
| NC(N)=NCc1cccc(-c2ccc(Br)cc2)c1 [Code 41] |  |  | MIC [1]: 4 µg/mL (≈ 13.1 µM); MIC [2]: 8 µg/mL (≈ 26.3 µM) |
| COc1cc(CN2CCN(C)CC2)cc(-c2ccc(C(C)(C)C)cc2)c1OC [Code 42] | 2 (≈ 5.23 µM) | 4 (≈ 10.5 µM) |  |
| CC(C)(C)c1ccc(-c2ccc(-c3cccc(CNC(=N)N)c3)cc2)cc1 [Code 43] | 1 (≈ 2.8 µM) | 2 (≈ 5.59 µM) |  |
| CC(C)(C)c1ccc(-c2cc(CNC(=N)N)cc(-c3ccc(C(C)(C)C)cc3)c2)cc1 [Code 44] | 4 (≈ 9.67 µM) | 32 (≈ 77.4 µM) |  |
| Cc1cc(C)cc(-c2cccc(CCN)c2)c1 [Code 45] | 64 (≈ 284 µM) |  |  |
| CCC(C)NCc1cccc(-c2ccc(C(C)(C)C)cc2)c1 (stereo not shown) [Code 46] |  | 16 (≈ 54.2 µM) | MSSA MIC data ([1]; minimal inhibitory concentration, broth microdilution, growth completely inhibited, listed as 40): 4.0 µg/mL |
| CC(C)(C)c1ccc(-c2cccc(Cn3ccnc3)c2)cc1 [Code 47] | 8 (≈ 27.5 µM) | 16 (≈ 55.1 µM) |  |
| CC(C)(C)c1ccc(-c2cc(Cn3ccnc3)cc(NS(C)(=O)=O)c2)cc1 [Code 51] |  |  | MSSA MIC data [1, 4]: 1.0 µg/mL; MRSA MIC data [2, 4]: 2.0 µg/mL |
| COC(=O)c1ccc(-c2ccc(C(C)(C)C)cc2)cc1Cn1ccnc1 [Code 52, methyl 3-((1H-imidazol-1-yl)methyl)-4′-(tert-butyl)-[1,1′-biphenyl]-4-carboxylate] | 1 (≈ 2.87 µM) | 2 (≈ 5.74 µM) |  |
| COc1cc(OC(F)(F)F)ccc1-c1cc(CN=C(N)N)cc(-c2ccc(C(C)(C)C)cc2)c1 [Code 53] | 1 (≈ 2.12 µM) | 2 (≈ 4.24 µM) |  |
| CCC(C)NCc1cccc(-c2ccc(C(C)(C)C)cc2)c1 (stereo not shown) [Code 54] |  |  | MSSA MIC data [1, 5]: 16 µg/mL; MRSA MIC data [2, 5]: 32 µg/mL |
| CC(C)(C)c1ccc(-c2ccc(CO)c(Cn3ccnc3)c2)cc1 [Code 56] | 2 (≈ 6.24 µM) | 8 (≈ 25 µM) |  |
| CC(C)(C)c1ccc(-c2cccc(CN)c2)cc1 [Code 57] | 16 (≈ 66.8 µM) | 16 (≈ 66.8 µM) |  |
| CCC(C)N(Cc1cccc(-c2ccc(C(C)(C)C)cc2)c1)C(=N)N (stereo not shown) [Code 57] | > 64 |  |  |
| CC(C)(C)c1ccc(-c2cc(CNC(=N)N)cc(CC(Br)Br)c2)cc1 [Code 58] | 32 (≈ 68.5 µM) |  |  |
| CC(C)(C)c1ccc(-c2cc(Cn3ccnc3)cc([N+](=O)[O-])c2)cc1 [Code 58] | 8 (≈ 23.9 µM) | 8 (≈ 23.9 µM) |  |
| CC(C)(C)c1ccc(-c2cc(CNC(=N)N)cc(CNC(=N)N)c2)cc1 [Code 59] | 16 (≈ 45.4 µM) | 16 (≈ 45.4 µM) |  |
| CC(C)(C)c1ccc(-c2cc(N)cc(Cn3ccnc3)c2)cc1 [Code 59] | > 64 |  |  |
| CC(C)(C)c1ccc(-c2cc(Cn3ccnc3)cc(Cn3ccnc3)c2)cc1 [Code 60] | 4 (≈ 10.8 µM) | 8 (≈ 21.6 µM) |  |
| CC(C)(C)c1ccc(-c2cc(Cn3ccnc3)cc(NS(C)(=O)=O)c2)cc1 [Code 60] |  |  | MSSA MIC data [1, 6]: 16.0 µg/mL; MRSA MIC data [2, 6]: >64 µg/mL |
| CC(C)(C)c1ccc(-c2cc(CC(Br)Br)cc(Cn3ccnc3)c2)cc1 [Code 61] | 2 (≈ 4.2 µM) | 8 (≈ 16.8 µM) | MSSA MIC data [1, 3]: 4.0 µg/mL |
| O=C(Nc1nccs1)c1ccc(-c2cccc(Cn3ccnc3)c2)cc1 [Code 62] | 4 (≈ 11.1 µM) | 32 (≈ 88.8 µM) |  |
| CC(=O)Nc1cc(Cn2ccnc2)cc(-c2ccc(C(C)(C)C)cc2)c1 [Code 63] | 16 (≈ 46 µM) | > 64 |  |
| CC(C)(C)c1ccc(-c2cc(CNC(=N)N)cc(-c3cscn3)c2)cc1 [Code 63] | 2 (≈ 5.49 µM) | 8 (≈ 21.9 µM) |  |
| NC(N)=NCc1cccc(-c2ccc(-c3cncs3)cc2)c1 [Code 64] |  | 32 (≈ 104 µM) | MSSA MIC data [1, 3]: 4.0 µg/mL; MSSA MIC data ([1]; minimal inhibitory concentration, broth microdilution, growth completely inhibited, listed as 54): 16 µg/mL |
| NC(N)=NCc1cccc(-c2ccc(-c3cscn3)cc2)c1 [Code 65] |  | 32 (≈ 104 µM) | MSSA MIC data [1, 3]: 8.0 µg/mL; MSSA MIC data ([1]; minimal inhibitory concentration, broth microdilution, growth completely inhibited, listed as 55): 32 µg/mL |
| CC(C)(C)c1ccc(-c2cccc(Cn3cncn3)c2)cc1 [Code 66] | 16 (≈ 54.9 µM) | 16 (≈ 54.9 µM) | MRSA MIC data [2, 3]: 32 µg/mL |
| CC(C)(C)c1ccc(-c2ccc(C(=O)Nc3nccs3)c(Cn3ccnc3)c2)cc1 [Code 67] | 32 (≈ 76.8 µM) |  |  |
